Here are results for 16 molecules from patent US20020013324A1, “N-substituted imide derivatives with serotonergic activity” (American Home Products Corporation, priority 1999, published 2002).

As a reminder, the IC50 is the concentration that inhibits the measured activity by half. What is called melting point is the temperature, or range, at which the solid turns liquid.

Counter-ions that a name gives are not always drawn.

In the first data set the target is T1, human 5-HT1A receptor (Homo sapiens, UniProt P08908).
T1 construct: expressed in transfected cells; host or cells: CHO cells (stably transfected)
T1 sequence (P08908 1-422): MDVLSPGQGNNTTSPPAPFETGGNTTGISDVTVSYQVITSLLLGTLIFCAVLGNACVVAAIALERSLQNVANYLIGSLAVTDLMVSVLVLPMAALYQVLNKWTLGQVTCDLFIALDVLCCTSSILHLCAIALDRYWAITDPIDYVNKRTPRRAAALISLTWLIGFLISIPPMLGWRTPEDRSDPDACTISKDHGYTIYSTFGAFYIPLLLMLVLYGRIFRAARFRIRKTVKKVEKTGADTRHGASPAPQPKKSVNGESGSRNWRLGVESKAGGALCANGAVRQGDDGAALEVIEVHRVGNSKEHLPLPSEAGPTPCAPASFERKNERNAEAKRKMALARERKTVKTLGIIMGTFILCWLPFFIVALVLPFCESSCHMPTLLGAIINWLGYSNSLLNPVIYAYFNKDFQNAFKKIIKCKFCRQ
Put plainly: Displacement of [3H]8-OH-DPAT from the 5-HT1A receptor in transfected CHO cells. Particulars: [3H]-8-OH-DPAT 1.5 nM; CHO cells with human 5-HT1A receptor; nonspecific binding with 10 μM 5-HT; room temperature; read-out: 5-HT1A Affinity (IC50). The source says: Affinity for the serotonin 5-HT1A receptor was established by assaying the test compound's ability to displace [3H]8-OHDPAT (dipropylaminotetralin) from its binding site on the receptor complex in CHO cells stably transfected with the human 5-HT1A receptor following a variation of a procedure of J. Zgombick et al., Naunyn-Schmiedeberg's Arch. Pharmacol., 354, 226-236 (1996), as described by J. Dunlop, Y. Zhang, D. L. Smith and L. E. Schechter, Journal of Pharmacological and Toxicological Methods 40, 47-55 (1998). The variation includes: the use of cells containing clonal human 5-HT1A receptor in place of 5-HT1D receptor; the use of [3H]-8-OH-DPAT (1.5 nM) as radioligand in place of [3H]-LSD; nonspecific binding determined with 10 μM 5-HT; and the test procedure was run at room temperature rather than 37° C.
For `COc1ccccc1N1CCN(CCN(C(=O)C2CCCCC2)C(=O)C2CCCCC2)CC1.Cl.Cl` [Example 6, Cyclohexanecarboxylic acid cyclohexanecarbonyl-{2-[4-(2-methoxyphenyl)-piperazin-1-yl]-ethyl}-amide dihydrochloride], the IC50 turned out to be 3.1 nM.

On to `Cl.Cl.O=C(C1CCCCC1)N(CCN1CCN(c2cccc3[nH]ccc23)CC1)C(=O)C1CCCCC1` [Example 7, Cyclohexanecarboxylic acid cyclohexanecarbonyl-{2-[4-(1H-indol-4-yl)-piperazin-1-yl]-ethyl}-amide dihydrochloride], for which the IC50 was 4.55 nM.

In the case of `O=C(C1CCCCC1)N(CCN1CCN(c2cccc3c2OCCO3)CC1)C(=O)C1CCCCC1` [Example 8, Cyclohexanecarboxylic acid cyclohexanecarbonyl-{2-[4-(2,3-dihydro-benzo[1,4]-dioxin)-5-yl}-piperazin-1-yl]-ethyl}-amide sesquihydrochloride monohydrate], the IC50 is 4.77 nM.

As to `COc1ccccc1N1CCN(C[C@@H](Cc2ccccc2)N(C(=O)C2CCCCC2)C(=O)C2CCCCC2)CC1` [Example 10, (R)-Cyclohexanecarboxylic acid cyclohexanecarbonyl-{1-benzyl)-2-[4-(2-methoxy-phenyl)-piperazin-1yl]-ethyl}-amide fumarate], the concentration for half-maximal inhibition (IC50) was determined as 61 nM.

In the case of `COc1ccc(C[C@H](CN2CCN(c3ccccc3OC)CC2)N(C(=O)C2CCCCC2)C(=O)C2CCCCC2)cc1` [Example 11, (R)-Cyclohexanecarboxylic acid cyclohexanecarbonyl-{1-(4-methoxybenzyl)-2-[4-(2-methoxyphenyl)-piperazin-1-yl]-etlyl}-amide hydrochloride], the IC50 came to 0.38 nM.

Regarding `COc1ccccc1N1CCN(C[C@@H](Cc2cn(C)c3ccccc23)N(C(=O)C2CCCCC2)C(=O)C2CCCCC2)CC1` [Example 12, (R)-Cyclohexanecarboxylic acid cyclohexanecarbonyl-{1-[4-(2-methoxyphenyl)-piperazin-1-ylmethyl]-2-(1-methyl-1H-indol-3-yl)ethyl}-amide hydrochloride monohydrate], the IC50 turned out to be 0.78 nM.

Regarding `O=C(c1ccccc1)N(CCN1CCN(c2cccc3c2OCCO3)CC1)C(=O)C1CCCCC1` [Example 14, Cyclohexanecarboxylic acid benzoyl-{2-[4-(2,3-dihydro-benzo[1,4]dioxin-5-yl)-1-piperazin-1-ylethyl]-amide hydrochloride sesquihydrate], the IC50 is 5.13 nM.

With `COc1ccccc1N1CCN(CCN(C(=O)c2ccccc2)C(=O)c2ccccc2)CC1` [Example 15, N-Benzoyl-N-{-2-[4-(2-methoxyphenyl)-piperazin-1-yl]-ethyl}-benzamide hydrochloride hemihydrate], the IC50 worked out at 23.4 nM.

In the case of `COc1ccccc1N1CCN(C[C@@H](C)N(C(=O)c2ccccc2)C(=O)c2ccccc2)CC1` [Example 16, (R)-N-Benzoyl-N-{1-methyl-2-[4-(2-methoxyphenyl)-piperazin-1-yl]-ethyl}-benzamide semifumarate-hemihydrate], the IC50 was 79.6 nM.

Consider “(R)-Cyclohexanecarboxylic acid cyclohexanecarbonyl-{1-methyl-2-[4-(2-methoxyphenyl)-piperazin-2-yl]-ethyl}-amide fumarate [Example 9]”, for which the IC50 came to 2.69 nM.

Tested on in the next data set: not given
Assay: not given
Details: not given
Turning to `COc1ccccc1N1CCN(C[C@@H](C)N(C(=O)c2ccccc2)C(=O)c2ccccc2)CC1` (as salt: fumarate) (hydrate or solvate) [Example 16, (R)-N-Benzoyl-N-{1-methyl-2-[4-(2-methoxyphenyl)-piperazin-1-yl]-ethyl}-benzamide semifumarate-hemihydrate], the melting point was in the range of 115 to 120 °C.

`COc1ccccc1N1CCN(C[C@@H](Cc2ccccc2)N(C(=O)C2CCCCC2)C(=O)C2CCCCC2)CC1` (as salt: fumarate) [Example 10, (R)-Cyclohexanecarboxylic acid cyclohexanecarbonyl-{1-benzyl)-2-[4-(2-methoxy-phenyl)-piperazin-1yl]-ethyl}-amide fumarate]: the melting point is 146 to 147 °C.

`O=C(C1CCCCC1)N(CCN1CCN(c2cccc3c2OCCO3)CC1)C(=O)C1CCCCC1` (as salt: hydrochloride) (hydrate or solvate) [Example 8, Cyclohexanecarboxylic acid cyclohexanecarbonyl-{2-[4-(2,3-dihydro-benzo[1,4]-dioxin)-5-yl}-piperazin-1-yl]-ethyl}-amide sesquihydrochloride monohydrate] came in with a melting point of 148 to 149 °C.

In the case of `O=C(c1ccccc1)N(CCN1CCN(c2cccc3c2OCCO3)CC1)C(=O)C1CCCCC1` (as salt: hydrochloride) (hydrate or solvate) [Example 14, Cyclohexanecarboxylic acid benzoyl-{2-[4-(2,3-dihydro-benzo[1,4]dioxin-5-yl)-1-piperazin-1-ylethyl]-amide hydrochloride sesquihydrate], the melting point lay within 169 to 171 °C.

Molecule `COc1ccc(C[C@H](CN2CCN(c3ccccc3OC)CC2)N(C(=O)C2CCCCC2)C(=O)C2CCCCC2)cc1` (as salt: hydrochloride) [Example 11, (R)-Cyclohexanecarboxylic acid cyclohexanecarbonyl-{1-(4-methoxybenzyl)-2-[4-(2-methoxyphenyl)-piperazin-1-yl]-etlyl}-amide hydrochloride] yielded a melting point of 106 to 108 °C.

The molecule `COc1ccccc1N1CCN(C[C@@H](Cc2cn(C)c3ccccc23)N(C(=O)C2CCCCC2)C(=O)C2CCCCC2)CC1.Cl.O` (hydrate or solvate) [Example 12, (R)-Cyclohexanecarboxylic acid cyclohexanecarbonyl-{1-[4-(2-methoxyphenyl)-piperazin-1-ylmethyl]-2-(1-methyl-1H-indol-3-yl)ethyl}-amide hydrochloride monohydrate] registered a melting point of 136 to 138 °C.

In the case of `COc1ccccc1N1CCN(CCN(C(=O)C2CCCCC2)C(=O)C2CCCCC2)CC1.Cl.Cl` [Example 6, Cyclohexanecarboxylic acid cyclohexanecarbonyl-{2-[4-(2-methoxyphenyl)-piperazin-1-yl]-ethyl}-amide dihydrochloride], the melting point is 159 to 160 °C.

In turn, `Cl.Cl.O=C(C1CCCCC1)N(CCN1CCN(c2cccc3[nH]ccc23)CC1)C(=O)C1CCCCC1` [Example 7, Cyclohexanecarboxylic acid cyclohexanecarbonyl-{2-[4-(1H-indol-4-yl)-piperazin-1-yl]-ethyl}-amide dihydrochloride] gave a melting point of 144 to 146 °C.
